Experimental data published in patent US9765039B2, “Biaryl derivatives as bromodomain inhibitors” (Zenith Epigenetics Ltd., priority 2012, dated 2017).

Experiments:
[1] = target: T1, Brd4 bromodomain 1 (Homo sapiens, UniProt O60885); test: Inhibition of tetra-acetylated histone H4 binding to BET bromodomains (TR-FRET); set-up: key: Active: Compounds with an IC50 value less than 30 μM were deemed to be active.; Not Active: Compounds with an IC50 value less than 30 μM were deemed to be active; conditions: first bromodomain of Brd4, tetra-acetylated histone H4 peptide
T1 construct: made in house; host or cells: E. coli BL21(DE3)
Method in brief: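 TR-FRET with N-terminally His-tagged bromodomains (200 nM, E. coli-expressed, Ni affinity and SEC-purified) and biotinylated tetra-acetylated histone H4 peptide (25–50 nM), detected with Eu-cryptate streptavidin and XL665 anti-His antibody. Buffer 30 mM HEPES pH 7.4, 320 mM KF, 0.08% BSA, 0.2% DMSO; 2 h RT. IC50 from decrease in 665/620 nm ratio.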

[2] = test system: c-myc; test: Inhibition of c-myc expression in cancer cell lines (mRNA, real-time PCR); type: cell-based; set-up: key: Active: Compounds with an IC50 value less than 30 μM were deemed to be active; conditions: Human AML MV4-11 cells, 3 hours
Method in brief: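 MV4-11 cells (2.5×10^4) exposed to compound or 0.1% DMSO for 3 h at 37° C, then lysed for mRNA isolation. c-myc and cyclophilin cDNAs co-amplified by duplex RT real-time PCR. IC50 from dose-response curve.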

[3] = test system: hApoA-1 mRNA; test: Up-regulation of hApoA-1 mRNA transcription in Huh7 cells; type: cell-based, human; set-up: key: Active: Compounds with an EC170 value less than 30 μM are deemed to be active.; Not Active: Compounds with an EC170 value less than 30 μM are deemed to be active; conditions: 48 hrs treatment, ApoA-I mRNA
Procedure: In this example, ApoA-I mRNA in tissue culture cells was quantitated to measure the transcriptional up-regulation of ApoA-I when treated with a compound of the present disclosure.
Huh7 cells ([…] per well) were plated in a 96-well plate using 100 μL DMEM per well, (Gibco DMEM supplemented with penicillin/streptomycin and 10% FBS), 24 h before the addition of the compound of interest. After 48 hrs treatment, the spent media was removed from the Huh-7 cells and placed on ice (for immediate use) or at −80° C. (for future use) with the “LDH cytotoxicity assay Kit II” from Abcam. The cells remaining in the plate were rinsed with 100 μL PBS.
Then 85 μL of cell lysis solution was added to each well and incubated for 5-10 minutes at room temperature, to allow for complete cell lysis and detachment. mRNA was then prepared using the “mRNA Catcher PLUS plate” from Life Technologies, according to the protocol supplied. After the last wash, as much wash buffer as possible was aspirated without allowing the wells to dry. Elution Buffer (E3, 80 μL) was then added to each well. mRNA was then eluted by incubating the mRNA Catcher PLUS plate with Elution Buffer for 5 minutes at 68° C., and then 1 minute at 4° C. Catcher plates with mRNA eluted were kept on ice for use or stored at −80° C.
The eluted mRNA isolated was then used in a one-step real-time PCR reaction, using components of the Ultra Sense Kit together with Life Technologies primer-probe mixes. Real-time PCR data was analyzed, using the Ct values, to determine the fold induction of each unknown sample, relative to the control (that is, relative to the control for each independent DMSO concentration).
Compounds with an EC170 value less than 30 μM are deemed to be active.

[4] = test system: hIL-6 mRNA; test: Inhibition of hIL-6 mRNA transcription in LPS-stimulated U937 macrophages; type: cell-based, human; set-up: key: Active: Compounds with an IC50 value less than 30 μM are deemed to be active; conditions: U937 differentiated into macrophages, 1 h pretreatment, lipopolysaccharide 3 h
Method in brief: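 U937 cells differentiated 3 days with 60 ng/mL PMA, pretreated 1 h with compound, then stimulated with […] E. coli LPS for 3 h at 37° C. hIL-6 mRNA quantified by one-step real-time RT-PCR, Ct normalised to internal control and expressed as fold induction relative to control.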

[5] = test system: Human AML MV-4-11 cells; test: Inhibition of cell proliferation in cancer cell lines (CellTiter Aqueous One); type: cell-based; set-up: key: Active: Compounds with an IC50 value less than 30 μM were deemed to be active.; Not Active: Compounds with an IC50 value less than 30 μM were deemed to be active; conditions: 72 hours
Method in brief: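 Exponentially growing MV-4-11 cells were treated immediately with two-fold compound dilutions from 30 µM to 0.2 µM in triplicate for 72 h at 37 °C. Viability was read by MTS (CellTiter Aqueous One) absorbance at 490 nm after 3-4 h; % proliferation vs DMSO gave IC50.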

Row | FRET activity (IC50 < 30 μM) [1] | c-myc activity (IC50 < 30 μM) [2] | IL-6 activity (IC50 < 30 μM) [4] | cell proliferation activity (IC50 < 30 μM) [5] | melting point | Structure (SMILES) | ApoA-1 Activity (EC170 < 30 μM) [3]
1 | Active | Active | Active | Active |  | COc1cc(OC)c2c(=O)[nH]c(-c3ccc(OCCNC(C)C)c(-c4ccc(C(=O)N(C)C)cc4C)n3)nc2c1 [Example 4, 4-(6-(5,7-dimethoxy-4-oxo-3,4-dihydroquinazolin-2-yl)-3-(2-(isopropylamino)ethoxy)pyridin-2-yl)-N,N,3-trimethylbenzamide] | Active
2 | Active | Active | Active | Active |  | COc1cc(OC)c2c(=O)[nH]c(-c3ccc(OCCO)c(-c4ccc(C(=O)N(C)C)cc4Cl)n3)nc2c1 [Example 5, 3-Chloro-4-(6-(5,7-dimethoxy-4-oxo-3,4-dihydroquinazolin-2-yl)-3-(2-hydroxyethoxy)pyridin-2-yl)-N,N-dimethylbenzamide] | Active
3 | Active | Active | Active | Active |  | COc1cc(OC)c2c(=O)[nH]c(-c3ccc(OCCNC(C)C)c(-c4ccc(C(=O)N(C)C)cc4Cl)n3)nc2c1 [Example 6, 3-Chloro-4-(6-(5,7-dimethoxy-4-oxo-3,4-dihydroquinazolin-2-yl)-3-(2-(isopropylamino)ethoxy)pyridin-2-yl)-N,N-dimethylbenzamide] | Active
4 | Active | Active | Active | Not Active |  | COc1cc(F)cc2nc(-c3ccc(OC4CN(C)C4)c(-c4ccc([S+](C)[O-])cc4)c3)[nH]c(=O)c12 (stereo not drawn) [Example 15, 7-Fluoro-5-methoxy-2-(6-((1-methylazetidin-3-yl)oxy)-4′-(methylsulfinyl)-[1,1′-biphenyl]-3-yl)quinazolin-4(3H)-one] | Active
5 | Active | Active | Active | Active |  | COc1cc(OC)c2c(=O)[nH]c(-c3ccc(OCCNC(C)C)c(-c4ccc([S+](C)[O-])cc4)c3)nc2c1 (stereo not drawn) [Example 17, 2-(6-(2-(Isopropylamino)ethoxy)-4′-(methylsulfinyl)biphenyl-3-yl)-5,7-dimethoxyquinazolin-4(3H)-one] | Active
6 | Active | Active | Active | Not Active |  | COc1cc(OC)c2c(=O)[nH]c(-c3ccc(OC4CNC4)c(-c4ccc(C#N)cc4)c3)nc2c1 [Example 18, 2′-(Azetidin-3-yloxy)-5′-(5,7-dimethoxy-4-oxo-3,4-dihydroquinazolin-2-yl)-[1,1′-biphenyl]-4-carbonitrile] | Active
7 | Active | Active | Active | Not Active |  | COc1cc(OC)c2c(=O)[nH]c(-c3ccc(OC4CN(C)C4)c(-c4ccc(C#N)cc4)c3)nc2c1 [Example 19, 5′-(5,7-Dimethoxy-4-oxo-3,4-dihydroquinazolin-2-yl)-2′-((1-methylazetidin-3-yl)oxy)-[1,1′-biphenyl]-4-carbonitrile] | Active
8 | Active | Active | Active | Not Active | 217 to 219 °C | COc1cc(OC)c2c(=O)[nH]c(-c3cccc(-c4ccc(C(=O)N(C)C)cc4)n3)nc2c1 [Example 20, 4-(6-(5,7-Dimethoxy-4-oxo-3,4-dihydroquinazolin-2-yl)pyridin-2-yl)-N,N-dimethylbenzamide] | Active
9 | Active | Active | Active | Not Active |  | COc1cc(OC)c2c(=O)[nH]c(-c3ccc(OCCO)c(-c4ccc(C(=O)N(C)C)cc4)n3)nc2c1 [Example 23, 4-(6-(5,7-Dimethoxy-4-oxo-3,4-dihydroquinazolin-2-yl)-3-(2-hydroxyethoxy)pyridin-2-yl)-N,N-dimethylbenzamide] | Active
10 | Active | Not Active | Active | Not Active | > 300 °C | COc1cc(OC)c2c(=O)[nH]c(-c3ccc(OCCO)c(-c4ccc(S(C)(=O)=O)cc4)n3)nc2c1 [Example 24, 2-(5-(2-Hydroxyethoxy)-6-(4-(methylsulfonyl)phenyl)pyridin-2-yl)-5,7-dimethoxyquinazolin-4(3H)-one] | Active
11 | Active | Active | Active | Active |  | COc1cc(OC)c2c(=O)[nH]c(-c3ccc(OCCO)c(-c4ccc(S(C)(=O)=O)cc4C)n3)nc2c1 [Example 39, 2-(5-(2-Hydroxyethoxy)-6-(2-methyl-4-(methylsulfonyl)phenyl)pyridin-2-yl)-5,7-dimethoxyquinazolin-4(3H)-one] | Active
12 | Active | Active | Active | Active |  | CCS(=O)(=O)c1ccc(-c2nc(-c3nc4cc(OC)cc(OC)c4c(=O)[nH]3)ccc2OCCN2CCCC2)cc1 [Example 42, 2-(6-(4-(Ethylsulfonyl)phenyl)-5-(2-(pyrrolidin-1-yl)ethoxy)pyridin-2-yl)-5,7-dimethoxyquinazolin-4(3H)-one] | Not Active
13 | Active | Active | Active | Active |  | CCS(=O)(=O)c1ccc(-c2nc(-c3nc4cc(OC)cc(OC)c4c(=O)[nH]3)ccc2OCCN2CCOCC2)cc1 [Example 43, 2-(6-(4-(Ethylsulfonyl)phenyl)-5-(2-morpholinoethoxy)pyridin-2-yl)-5,7-dimethoxyquinazolin-4(3H)-one] | Active
14 | Active | Active | Active | Active |  | COc1cc(OC)c2c(=O)[nH]c(-c3ccc(OCCNC(C)C)c(-c4ccc(S(C)(=O)=O)cc4)c3)nc2c1 [Example 44, 2-(6-(2-(Isopropylamino)ethoxy)-4′-(methylsulfonyl)-[1,1′-biphenyl]-3-yl)-5,7-dimethoxyquinazolin-4(3H)-one] | Active
